The values that follow come from article PMC9599717, “The Multicellular Effects of VDAC1 N-Terminal-Derived Peptide” (Biomolecules, 2022).

Test [1] relates to U-87MG cells. In words: Cell migration / wound-healing assay. In kind it is cell-based, human. Particulars: 20 μM peptide, 24 h, untreated cells 64%. The protocol: color was read in a spectrophotometer at 680 nm. A standard curve was obtained using D-glucose (0–20 µg) subjected to anthrone in a sulfuric acid treatment, as described above.
Lysosomal vacuolation observed with acridine orange (AO) staining
(§1) U-87MG cells were treated with D-Δ(1-18)N-Ter-Antp peptide in serum-free DMEM media for 6 h at 37℃, incubated with acridine orange (1 μg/ml) for 15 min, visualized by fluorescence microscopy (Olympus LX2 - KSP, Tokyo, Japan), and images were captured with a CCD camera. About 200 cells were counted for each […]
Cell migration assay/wound-healing assay
U-87MG cells were seeded in 12-well plates and cultured. When reaching around 90% confluence, a straight scratch was mechanically made with a sterile 10-µl pipette tip. The cells were treated with various concentrations of D-Δ(1-18)N-Ter-Antp peptide in serum-free DMEM media for the indicated time points. The images of the wounds were captured at different time points using a digital camera mounted on a microscope to follow the position of the migrating front at defined times. […]
Summary of the peptide concentrations (µM) required for half-maximal cell death activity (IC50) in various cancer cell lines. […] Cell death was determined by PI staining and FACS analysis. […]

Test [2] concerns U-87MG cells. In words: Cell senescence assay (β-galactosidase activity). In kind it is cell-based, human. As to conditions: 12 h / 6 h (supplementary method). The protocol: Figure 3 The D-Δ(1-18)N-Ter-Antp peptide induced autophagy and cellular senescence and altered the expression of apoptosis-related proteins. (A,B) U-87MG cells were treated with the indicated concentrations of D-Δ(1-18)N-Ter-Antp peptide for 12 h and then were subjected to immunoblotting for caspase-9, AIF, Bcl-xL, Bcl-2, and Bax and the relative expression level was quantified (B). (C,D) U-87MG cells were treated with the indicated concentrations of D-Δ(1-18)N-Ter-Antp peptide for 12 h and then subjected to immunoblotting for the autophagy markers LC3-I and LC3-II (C) and LC3-II quantification (D). (E,F) U-87MG cells were treated with the indicated concentrations of D-Δ(1-18)N-Ter-Antp peptide for 12 h and then subjected to β-gal activity (blue). Mouse embryonic fibroblast cells at passage 10 (MEF-P10) served as a positive control of senescent cells. Quantification of β-gal staining intensity (F). Data are presented as the mean ± SD, n = 3, * p < 0.05; ** p < 0.01; *** p < 0.001 versus control group. NS, non-specific. […]
color was read in a spectrophotometer at 680 nm. […]
as §1

For the substance “19-FTKGYGFGL-26- RQIKIWFQNRRMKWKK [D-Δ(1-18)N-Ter-Antp]”, the “Gap closed in wound-healing assay” value in the test with U-87MG cells [1] is on record as 17%. Also, the “Cellular senescence, β-galactosidase activity” value in the test with U-87MG cells [2] is given as “showed cellular senescence”.
